The values that follow are results of earlier work, collected in patent publication US20260283943A1, “STARCHLESS MOLDING PROCESS FOR ORAL PRODUCTS” (NICOVENTURES TRADING LIMITED, priority 2023, published 2026).

The conditions of data set [1]: isolated substance.

In the case of `COC(=O)/C=C/C(C)=C\C=C\C(C)=C\C=C\C=C(C)\C=C\C=C(C)\C=C\C(=O)O` [bixin, (2E,4E,6E,8E,10E,12E,14E,16Z,18E)-20-methoxy-4,8,13,17-tetramethyl-20-oxoicosa-2,4,6,8,10,12,14,16,18-nonaenoic acid], the Solubility in water entry is given as “insoluble in water”. In addition, the Chemical stability entry in data set [1] is on record as “chemically unstable when isolated”.

On to `C=C(C)[C@@H]1CCC(C)=C[C@H]1c1c(O)cc(CCCCC)cc1O` [CBD, cannabidiol, reference compound], for which the Solubility in water entry is “insoluble in an aqueous environment”.
